Laboratory results as given in US20100137313A1 (ASTRAZENECA AB, priority 2008, published 2010).

Biological target: S. pneumoniae Topoisomerase IV ATPase (ParE) (Streptococcus pneumoniae serotype 4, UniProt Q59961)
Test: S. pneumoniae Topoisomerase IV ATPase inhibition
Assay type: biochemical
Details: values marked * are an average of two or more data points; for inhibition at 13 µM: read-out: % Inh (13 μM) of S. pneumoniae Topoisomerase IV ATPase
Summary of the method: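 S. pneumoniae ParE (1.25 nM) ATPase with 160 μM ATP and 5 μg/ml sheared DNA in pH 8.0 Tris, Mg2+, DTT, Brij-35; phosphate detected by malachite green/molybdate at 650 nm. Normalised to 2% DMSO (0%) and 20 μM EDTA (100%); IC50 from 10 concentrations.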

Chain of S. pneumoniae Topoisomerase IV ATPase (ParE) (Q59961 whole entry): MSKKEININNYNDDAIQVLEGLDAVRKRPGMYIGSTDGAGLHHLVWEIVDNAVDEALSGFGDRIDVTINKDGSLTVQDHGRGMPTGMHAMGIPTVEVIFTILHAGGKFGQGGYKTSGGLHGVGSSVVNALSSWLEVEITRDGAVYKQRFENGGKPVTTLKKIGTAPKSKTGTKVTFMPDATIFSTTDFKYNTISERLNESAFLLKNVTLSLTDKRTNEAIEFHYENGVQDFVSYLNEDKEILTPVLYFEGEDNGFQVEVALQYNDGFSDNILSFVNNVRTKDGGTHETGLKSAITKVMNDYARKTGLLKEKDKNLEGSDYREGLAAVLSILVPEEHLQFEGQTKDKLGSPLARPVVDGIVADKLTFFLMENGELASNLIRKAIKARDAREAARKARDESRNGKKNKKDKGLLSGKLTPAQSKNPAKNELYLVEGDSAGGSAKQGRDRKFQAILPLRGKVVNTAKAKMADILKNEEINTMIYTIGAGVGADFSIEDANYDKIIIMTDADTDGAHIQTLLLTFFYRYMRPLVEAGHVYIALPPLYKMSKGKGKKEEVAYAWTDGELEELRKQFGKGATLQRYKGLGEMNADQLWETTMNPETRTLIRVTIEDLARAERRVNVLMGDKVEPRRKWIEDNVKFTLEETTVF

Compound	inhibition at 13 µM	% Inh (13 μM) of S. pneumoniae Topoisomerase IV ATPase (13 µM)
Cc1cc(C(F)(F)F)nn1-c1nc(Nc2ccc(F)c(Cl)c2)ncc1-c1cnc(OCCS(C)(=O)=O)c(C(=O)O)c1 [Example 956, 5-(2-(3-chloro-4-fluorophenylamino)-4-(5-methyl-3-(trifluoromethyl)-1H-pyrazol-1-yl)pyrimidin-5-yl)-2-(2-(methylsulfonyl)ethoxy)nicotinic acid]	100%	–
COc1cc(Nc2ncc(-c3cnc(OCCNC(C)=O)c(C(=O)O)c3)c(-n3nc(C(F)(F)F)cc3C)n2)cc(OC)c1 [Example 957, 2-(2-acetamidoethoxy)-5-(2-(3,5-dimthoxyphenylamino)-4-(5-methyl-3-(trifluoromethyl)-1H-pyrazol-1-yl)pyrimidin-5-yl)nicotinic acid]	100%	–
O=C(O)/C=C/c1cccc(-c2cnc(Nc3ccc(F)c(Cl)c3)nc2N[C@H]2CCOC2)c1 [Example 958]	–	93%
CC(C)Oc1ncc(-c2cnc(Nc3ccc(F)c(Cl)c3)nc2-n2ccc(C(F)(F)F)n2)cc1C(=O)O [Example 959, 5-(2-(3-chloro-4-fluorophenylamino)-4-(3-(trifluoromethyl)-1H-pyrazol-1-yl)pyrimidin-5-yl)-2-isopropoxynicotinic acid]	93%	–
Cc1cc(C(F)(F)F)nn1-c1nc(Nc2ccc(F)c(Cl)c2)ncc1-c1cnc(OC(C)C)c(C(=O)O)c1 [Example 960, 5-(2-(3-chloro-4-fluorophenylamino)-4-(5-methyl-3-(trifluoromethyl)-1H-pyrazol-1-yl)pyrimidin-5-yl)-2-isopropoxynicotinic acid]	100%	–
Cn1ccnc1COc1ncc(-c2cnc(Nc3ccc(F)c(Cl)c3)nc2-n2ccc(C(F)(F)F)n2)cc1C(=O)O [Example 961, 5-(2-(3-chloro-4-fluorophenylamino)-4-(3-(trifluoromethyl)-1H-pyrazol-1-yl)pyrimidin-5-yl)-2-((1-methyl-1H-imidazol-2-yl)methoxy)nicotinic acid]	100%	–
CN1CCN(CCOc2ncc(-c3cnc(Nc4ccc(F)c(Cl)c4)nc3-n3ccc(C(F)(F)F)n3)cc2C(=O)O)CC1 [Example 962, 5-(2-(3-chloro-4-fluorophenylamino)-4-(3-(trifluoromethyl)-1H-pyrazol-1-yl)pyrimidin-5-yl)-2-(2-(4-methylpiperazin-1-yl)ethoxy)nicotinic acid]	98%	–
Cc1cc(C(F)(F)F)nn1-c1nc(Nc2ccc(F)c(Cl)c2)ncc1-c1cnc(OCCN2CCN(C)CC2)c(C(=O)O)c1 [Example 963, 5-(2-(3-chloro-4-fluorophenylamino)-4-(5-methyl-3-(trifluoromethyl)-1H-pyrazol-1-yl)pyrimidin-5-yl)-2-(2-(4-methylpiperazin-1-yl)ethoxy)nicotinic acid]	100%	–
Cc1cc(C)cc(Nc2ncc(-c3cnc(OCCS(C)(=O)=O)c(C(=O)O)c3)c(-n3ccc(C(F)(F)F)n3)n2)c1 [Example 964]	40%	–
COc1cc(Nc2ncc(-c3cnc(OCCS(C)(=O)=O)c(C(=O)O)c3)c(-n3nc(C(F)(F)F)cc3C)n2)cc(OC)c1 [Example 965, 5-(2-(3,5-dimethoxyphenylamino)-4-(5-methyl-3-(trifluoromethyl)-1H-pyrazol-1-yl)pyrimidin-5-yl)-2-(2-(methylsulfonyl)ethoxy)nicotinic acid]	100%	–
CS(=O)(=O)CCOc1ncc(-c2cnc(Nc3ccc(F)c(Cl)c3)nc2-n2ccc(C(F)(F)F)n2)cc1C(=O)O [Example 966, 5-(2-(3-chloro-4-fluorophenylamino)-4-(3-(trifluoromethyl)-1H-pyrazol-1-yl)pyrimidin-5-yl)-2-(2-(methylsulfonyl)ethoxy)nicotinic acid]	100%	–
COc1cc(Nc2ncc(-c3cnc(OCCCS(C)(=O)=O)c(C(=O)O)c3)c(-n3nc(C(F)(F)F)cc3C)n2)cc(OC)c1 [Example 967, 5-(2-(3,5-dimethoxyphenylamino)-4-(5-methyl-3-(trifluoromethyl)-1H-pyrazol-1-yl)pyrimidin-5-yl)-2-(3-(methylsulfonyl)propoxy)nicotinic acid]	100%	–
COc1cc(Nc2ncc(-c3cnc(OCCCS(C)(=O)=O)c(C(=O)O)c3)c(-n3ccc(C(F)(F)F)n3)n2)cc(OC)c1 [Example 968, 5-(2-(3,5-dimethoxyphenylamino)-4-(3-(trifluoromethyl)-1H-pyrazol-1-yl)pyrimidin-5-yl)-2-(3-(mehtylsulfonyl)propoxy)nicotinic acid]	94%	–
COc1cc(Nc2ncc(-c3cnc(OCCNC(C)=O)c(C(=O)NS(C)(=O)=O)c3)c(-n3nc(C(F)(F)F)cc3C)n2)cc(OC)c1 [Example 969, 2-(2-acetamidoethoxy)-5-(2-(3,5-dimethoxyphenylamino)-4-(5-methyl-3-(trifluoromethyl)-1H-pyrazol-1-yl)pyrimidin-5-yl)-N-(methylsulfonyl)nicotinamide]	100%	–
COc1cc(Nc2ncc(-c3cnc(OCCCS(C)(=O)=O)c(C(=O)NS(C)(=O)=O)c3)c(-n3nc(C(F)(F)F)cc3C)n2)cc(OC)c1 [Example 970, 5-(2-(3,5-dimethoxyphenylamino)-4-(5-methyl-3-(trifluoromethyl)-1H-pyrazol-1-yl)pyrimidin-5-yl)-N-(methylsulfonyl)-2-(3-(methylsulfonyl)propoxy)nicotinamide]	100%	–
COc1cc(Nc2ncc(-c3cnc(OCCCS(C)(=O)=O)c(C(=O)NS(C)(=O)=O)c3)c(-n3ccc(C(F)(F)F)n3)n2)cc(OC)c1 [Example 971, (2-(3,5-dimethoxyphenylamino)-4-(3-(trifluoromethyl)-1H-pyrazol-1-yl)pyrimidin-5-yl)-N-(methylsulfonyl)-2-(3-(methylsulfonyl)propoxy)nicotinamide]	100%	–
COc1cc(Nc2ncc(-c3cnc(OCCCS(C)(=O)=O)c(C(=O)NS(=O)(=O)C(F)(F)F)c3)c(-n3ccc(C(F)(F)F)n3)n2)cc(OC)c1 [Example 972, 5-(2-(3,5-dimethoxyphenylamino)-4-(3-(trifluoromethyl)-1H-pyrazol-1-yl)pyrimidin-5-yl)-2-(3-(methylsulfonyl)propoxy)-N-(trifluoromethylsulfonyl)nicotinamide]	100%	–
COc1cc(Nc2ncc(-c3cnc(OC)c(-c4noc(=S)[nH]4)c3)c(-n3nc(C(F)(F)F)cc3C)n2)cc(OC)c1 [Example 974, 3-(5-(2-(3,5-dimethoxyphenylamino)-4-(5-methyl-3-(trifluoromethyl)-1H-pyrazol-1-yl)pyrimidin-5-yl)-2-methoxypyridin-3-yl)-1,2,4-oxadiazol-5(4H)-thione]	89%	–
COc1cc(Nc2ncc(-c3cnc(OC)c(-c4noc(=O)[nH]4)c3)c(-n3nc(C(F)(F)F)cc3C)n2)cc(OC)c1 [Example 975, 3-(5-(2-(3,5-dimethoxyphenylamino)-4-(5-methyl-3-(trifluoromethyl)-1H-pyrazol-1-yl)pyrimidin-5-yl)-2-methoxypyridin-3-yl)-1,2,4-oxadiazol-5(4H)-one]	100%	–
CCOC(=O)/C=C/c1cccc(-c2cnc(Nc3ccc(F)c(Cl)c3)nc2N2CCOC(CO)C2)c1 (stereo not shown) [Example 977, (E)-ethyl 3-(3-(2-(3-chloro-4-fluorophenylamino)-4-(2-(hydroxymethyl)morpholino)pyrimidin-5-yl)phenyl)acrylate]	74%	–
CCOC(=O)c1cncc(-c2cnc(Nc3ccc(F)c(Cl)c3)nc2N2CCOC(CO)C2)c1 (stereo not shown) [Example 978, Ethyl 5-(2-(3-chloro-4-fluorophenylamino)-4-(2-(hydroxymethyl)morpholino)pyrimidin-5-yl)nicotinate]	82%	–
CC(=O)N1CCN(c2nc(Nc3ccc(F)c(Cl)c3)ncc2-c2ccc(C(=O)O)s2)CC1 [Example 982, 5-(4-(4-Acetylpiperazin-1-yl)-2-(3-chloro-4-fluorophenylamino)pyrimidin-5-yl)thiophene-2-carboxylic acid]	100%	–
COCCCNc1nc(Nc2ccc(F)c(Cl)c2)ncc1-c1cncc(S(C)(=O)=O)c1 [Example 987, N2-(3-chloro-4-fluorophenyl)-N4-(3-methoxypropyl)-5-(5-(methylsulfonyl)pyridin-3-yl)pyrimidine-2,4-diamine]	30%	–
CS(=O)(=O)c1cncc(-c2cnc(Nc3ccc(F)c(Cl)c3)nc2N2CCOCC2)c1 [Example 988, N-(3-chloro-4-fluorophenyl)-5-(5-(methylsulfonyl)pyridin-3-yl)-4-morpholinopyrimidin-22-amine]	69%	–
Cc1cc(C(F)(F)F)nn1-c1nc(Nc2ccc(F)c(Cl)c2)ncc1-c1cncc(S(C)(=O)=O)c1 [Example 989, N-(3-chloro-4-fluorophenyl)-4-(5-methyl-3-(trifluoromethyl)-1H-pyrazol-1-yl)-5-(5-(methylsulfonyl)pyridin-3-yl)pyrimidin-2-amine]	100%	–
CS(=O)(=O)c1cncc(-c2cnc(Nc3ccc(F)c(Cl)c3)nc2-n2ccc(C(F)(F)F)n2)c1 [Example 990, N-(3-chloro-4-fluorophenyl)-5-(5-(methylsulfonyl)pyridin-3-yl)-4-(3-(trifluoromethyl)-1H-pyrazol-1-yl)pyrimidin-2-amine]	100%	–
CS(=O)(=O)CC(=O)c1cncc(-c2cnc(Nc3ccc(F)c(Cl)c3)nc2-n2ccc(C(F)(F)F)n2)c1 [Example 993, 1-(5-(2-(3-chloro-4-fluorophenylamino)-4-(3-(trifluoromethyl)-1H-pyrazol-1-yl)pyrimidin-5-yl)pyridin-3-yl)-2-(methylsulfonyl)ethanone]	100%	–
CCNS(=O)(=O)c1cccc(-c2cnc(Nc3ccc(F)c(Cl)c3)nc2-n2ccc(C(F)(F)F)n2)c1 [Example 995, 3-(2-(3-Chloro-4-fluorophenylamino)-4-(3-(trifluoromethyl)-1H-pyrazol-1-yl)pyrimidin-5-yl)-N-ethylbenzenesulfonamide]	89%	–
